Measurements: patent US20250051337A1 (priority 2021, published 2025)

Assays:
STK4 = STK4 (Homo sapiens (Human), UniProt Q13043); assay: PhosphoSens CSox-based Sensor Assay, STK4; assay type: biochemical; conditions: Km ATP, mean n = 2
Description: (§1) Materials were obtained and prepared according to the assay manufacturer's protocol (Assay Quant Technologies: Marlborough, MA, USA). The 50 μL reaction was initiated by addition of a master mix containing the compounds or vehicle, kinase, and CSox-peptide substrate to a well containing the remaining components. […] Final concentrations were: […] HEPES pH 7.5, 50 μM ATP, 1.0 mM DTT, 0.01% Brij-35, 0.5 mM EGTA, 10 mM MgCl2, 10 μM peptide substrate (AQT0135), and 5.0 nM STK3 (SignalChem #S24-10G) or STK4 (SignalChem #S25-10G) kinases. […] Background-corrected RFU were plotted against time using Prism 8 software. Velocity determinations were calculated for each reaction and plotted versus compound concentration to generate inhibitor curves.
(§2) The PhosphoSens® CSox-based Sensor real-time kinetic assay uses a peptide substrate containing an unnatural amino acid and physiological Mg^2+ levels to quantify substrate phosphorylation using fluorescence.

kinase domain of STK4 = kinase domain of STK4 (Homo sapiens (Human), UniProt Q13043); assay: Isothermal titration calorimetry (ITC), STK4; assay type: binding; conditions: 25° C
kinase domain of STK4, sequence (Q13043 30-281): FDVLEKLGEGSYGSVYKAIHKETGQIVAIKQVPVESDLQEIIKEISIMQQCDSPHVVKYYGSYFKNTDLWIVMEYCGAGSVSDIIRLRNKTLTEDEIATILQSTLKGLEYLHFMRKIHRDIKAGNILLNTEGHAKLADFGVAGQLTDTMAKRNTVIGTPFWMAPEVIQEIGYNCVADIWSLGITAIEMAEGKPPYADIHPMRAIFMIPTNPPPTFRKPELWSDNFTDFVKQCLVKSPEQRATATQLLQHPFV
Description: (§3) All ITC experiments were performed using NanoITC (TA Instruments: New Castle, DE, USA) at 25° C. in a buffer containing 20 mM Tris pH 7.5, 150 mM NaCl, and 0.5 mM TCEP. […] For this protocol the chamber was pre-equilibrated with the test compound, and the kinase domain of STK3 or STK4 was titrated in while continuously measuring the rate of exothermic heat evolution. The heat of binding was integrated, corrected, and fitted to an independent single-binding site model based on the manufacturer's protocol, from which thermodynamic parameters (ΔH and TΔS), equilibrium association and dissociation constants (Ka and KD), and stoichiometry (n) were calculated.
(§4) Isothermal titration calorimetry (ITC) was used to determine the thermodynamic properties of the compounds.

Caco-2 permeability = assay type: in vitro ADME; conditions: human; for Papp B→A: Caco-2; for efflux ratio: Caco-2, Papp (B→A/A→B)
Description: (§5) The Caco-2 cell permeability was determined for selected compounds 6, 11, 16, and 23. Permeability is classified as follows: high >10, medium, 1-10, and low ≤1. The efflux ratio is calculated by Papp (B→A/A→B). A compound is a potential transporter substrate if efflux ratio >2.0. Atenolol, Propranolol, and Taxol were used as internal standards. Data is represented as an average of a single experiment preformed in duplicate. Apparent permeability=(Papp).

Caco-2 cell = assay: Caco-2 permeability; assay type: in vitro ADME; conditions: Caco-2, classification
Description: as §5

STK3 = STK3 (Homo sapiens (Human), UniProt Q13188); assay: PhosphoSens CSox-based Sensor Assay, STK3; assay type: biochemical; conditions: Km ATP, mean n = 2
STK3, sequence (Q13188 whole entry): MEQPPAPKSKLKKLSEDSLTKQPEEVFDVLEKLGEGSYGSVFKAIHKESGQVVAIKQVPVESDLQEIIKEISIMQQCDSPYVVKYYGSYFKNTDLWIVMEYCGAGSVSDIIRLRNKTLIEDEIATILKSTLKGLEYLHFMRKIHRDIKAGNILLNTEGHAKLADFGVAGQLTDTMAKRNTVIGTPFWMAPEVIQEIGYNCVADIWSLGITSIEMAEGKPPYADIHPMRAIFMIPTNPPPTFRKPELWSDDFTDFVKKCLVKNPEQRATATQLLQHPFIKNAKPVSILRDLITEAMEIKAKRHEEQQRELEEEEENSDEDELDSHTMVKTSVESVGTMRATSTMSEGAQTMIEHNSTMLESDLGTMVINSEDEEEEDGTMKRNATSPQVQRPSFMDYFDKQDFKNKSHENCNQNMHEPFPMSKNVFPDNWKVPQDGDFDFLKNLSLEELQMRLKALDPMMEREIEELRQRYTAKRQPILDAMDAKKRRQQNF
Description: as §1, §2

kinase domain of STK3 = kinase domain of STK3 (Homo sapiens (Human), UniProt Q13188); assay: Isothermal titration calorimetry (ITC), STK3; assay type: binding; conditions: 25° C
kinase domain of STK3, sequence (Q13188 27-278): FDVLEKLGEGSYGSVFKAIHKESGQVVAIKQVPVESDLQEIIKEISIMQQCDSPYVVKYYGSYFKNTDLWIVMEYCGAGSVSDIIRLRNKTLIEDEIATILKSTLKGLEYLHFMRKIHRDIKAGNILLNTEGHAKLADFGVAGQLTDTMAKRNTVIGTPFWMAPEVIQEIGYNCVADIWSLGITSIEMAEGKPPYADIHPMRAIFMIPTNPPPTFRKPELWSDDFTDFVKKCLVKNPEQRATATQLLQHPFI
Description: as §3, §4

STK4, sequence (Q13043 whole entry): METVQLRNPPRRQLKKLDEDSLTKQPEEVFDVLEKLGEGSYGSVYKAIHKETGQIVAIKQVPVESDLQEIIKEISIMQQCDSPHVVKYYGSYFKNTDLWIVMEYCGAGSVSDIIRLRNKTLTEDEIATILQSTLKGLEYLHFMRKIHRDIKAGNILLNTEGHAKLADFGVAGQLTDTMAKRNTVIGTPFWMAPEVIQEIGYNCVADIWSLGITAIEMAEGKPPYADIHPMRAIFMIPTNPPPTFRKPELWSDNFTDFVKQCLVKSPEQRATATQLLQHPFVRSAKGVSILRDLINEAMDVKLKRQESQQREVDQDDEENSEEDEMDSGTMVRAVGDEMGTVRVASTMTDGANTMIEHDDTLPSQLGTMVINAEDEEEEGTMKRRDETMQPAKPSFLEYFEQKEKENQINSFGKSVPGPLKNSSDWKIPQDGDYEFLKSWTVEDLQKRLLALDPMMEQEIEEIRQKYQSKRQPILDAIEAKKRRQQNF

Row | Compound | Ki (STK4) [nM] | ITC-KD, STK4 (kinase domain of STK4) | Papp B→A (Caco-2 permeability) [×10⁻⁶ cm/s] | Permeability (Caco-2 cell) | Ki (STK3) [nM] | efflux ratio (Caco-2 permeability) | Papp (Caco-2 permeability; Caco-2, classification) [×10⁻⁶ cm/s] | ITC-KD, STK3 (kinase domain of STK3)
1 | Clc1cccc(-c2c[nH]c3ncnc(N4CCOCC4)c23)c1 [Compound 6, 4-(5-(3-Chlorophenyl)-7H-pyrrolo[2,3-d]pyrimidin-4-yl)morpholine] | 52 | low nanomolar affinities | 35.7 | High | – | – | – | –
2 | NC(=O)c1cccc(-c2c[nH]c3ncnc(N4CCOCC4)c23)c1 [Compound 11, 3-(4-Morpholino-7H-pyrrolo[2,3-d]pyrimidin-5-yl)benzamide] | – | – | 136 | Medium to High | 145 | – | – | –
3 | OC1CCN(c2ncnc3[nH]cc(-c4cccc(Cl)c4)c23)CC1 [Compound 16, 1-(5-(3-Chlorophenyl)-7H-pyrrolo[2,3-d]pyrimidin-4-yl)piperidin-4-ol] | – | – | 294 | High | – | 1.3 | > 10 | –
4 | Clc1cccc(-c2c[nH]c3nccc(N4CCOCC4)c23)c1 [Compound 23, 4-(3-(3-chlorophenyl)-1H-pyrrolo[2,3-b]pyridin-4-yl)morpholine] | 33 | low nanomolar affinities | 7 | High | 209 | 1.6 | – | low nanomolar affinities
